What was measured:
human KCNQ4 channel = target: T1, human KCNQ4 channel (Homo sapiens, UniProt P56696); assay: Electrophysiological determination: whole-cell patch-clamp of voltage-activated KCNQ current; type: cell-based; settings: HEK293 cell line stably expressing human KCNQ4; for IK (%): current at end of step to −30 mV, baseline current defined as 100%, test concentration not given; for activator or inhibitor of the KCNQ channel (increase or decrease in current): whole-cell patch clamp
T1 construct: expressed in transfected cells
Experimental: KCNQ channels constitute a subfamily of the voltage-dependent potassium (K) channels. Five members of this family have been cloned (1-5) and they have been heterologously expressed in various homo- and heteromeric combinations. The ionic current through the channels is recorded in the whole-cell mode of the patch-clamp technique. The KCNQ currents are activated by a depolarising voltage step and it is investigated whether the test compound change the amount of basal current. Compounds that induce an increase in the voltage-activated current are called activators and the effect obtained by these activators is described as a percentage increase in baseline current at a given concentration.
A HEK293 cell line stably expressing the human KCNQ4 channel was obtained as described by Søgaard et al. [Søgaard R, Ljungstrøm T. Pedersen K A, Olesen S-P, Jensen B S: KCNQ4 channels expressed in mammalian cells: Functional characteristics and pharmacology; Am. J. Phys. 2000 280 C859-C866].
Experiments are carried out on a patch-clamp set-up. Cells plated on cover slips (Ø3.5 mm) are placed in a 15 μl perfusion chamber (flow rate ˜1 ml/min) mounted on an IMT-2 or IX-70 microscope equipped with Nomarski or Hoffmann optics. The microscope is placed on a vibration-free table in a grounded Faraday cage. All experiments are performed at room temperature (20-22° C.). The EPC-9 patch-clamp amplifier (HEKA-electronics, Lambrecht, Germany) is connected to a Macintosh computer via an ITC16 interface. Data are stored directly on the hard disk and analysed using IGOR software (Wavemetrics, Lake Oswego, USA).
The whole-cell configuration of the patch clamp technique is applied. In short: The Up of a borosilicate pipette (resistance 24 MΩ) is gently (remote control system) placed on the cell membrane. Light suction results in a giga seal (pipette resistance increases to more than 1 GΩ) and the cell membrane is then ruptured by more powerful suction. Cell capacitance is electronically compensated and the resistance between the pipette and the cell interior (the series resistance, Rs) is measured and compensated for. Usually the cell capacitance ranges from 5 to 20 pF (depending on cell size) and the series resistance is in the range 3 to 6 MΩ. Rs- as well as capacitance compensation are updated during the experiments (before each stimulus). All experiments with drifting Rs-values are discharged. Leak-subtractions are not performed but the leak is estimated by a hyper-polarisation voltage step.
The extracellular (bath) solution contains 144 mM NaCl, 2 mM CaCl2, 1 mM MgCl2, 10 mM HEPES (pH=7.4). […] By use of the program EqCal the concentration of free Ca^2+ have been calculated to 100 nM, the free Mg^2+ is 1 mM, and MgATP is 1.45 mM. […]

Structure (SMILES) | melting point | IK (%) (human KCNQ4 channel) | activator or inhibitor of the KCNQ channel (increase or decrease in current) (human KCNQ4 channel)
Nc1cccc(-c2ccc(COc3ccc(C(=O)O)c(O)c3)cc2)c1 [Compound 3-11, 4-(3′-Amino-biphenyl-4-ylmethoxy)-2-hydroxy-benzoic acid] | 207 to 210 °C (dec.) | 115 | activators
O=C(O)c1ccc(-c2ccc(COc3ccc(C(=O)O)c(O)c3)cc2)cc1 [Compound 3-17, 4′-(4-Carboxy-3-hydroxy-phenoxymethyl)-biphenyl-4-carboxylic acid] | 279 to 284 °C (dec.) | 115 | activators
O=C(O)c1ccc(Nc2ccccc2[N+](=O)[O-])cc1O [Compound 8-12, 2-Hydroxy-4-(2-nitro-phenylamino)-benzoic acid] | 190 °C (dec.) | – | –
CCCCCCCCOc1ccc(NC(=O)C(F)(F)F)c(O)c1 [Compound 9-1, 2,2,2-trifluoro-N-(2-hydroxy-4-octyloxy-phenyl)-acetamide] | 114 to 116 °C | – | –
CCCCCCCCOc1ccc(NS(C)(=O)=O)c(O)c1 [Compound 9-2, N-(2-hydroxy-4-octyloxy-phenyl)-methanesulfonamide] | 98 to 101 °C | – | –
O=C(Nc1ccc(OCc2ccc(F)cc2)cc1O)C(F)(F)F [Compound 9-3, 2,2,2-trifluoro-N-[4-(4-fluoro-benzyloxy)-2-hydroxy-phenyl]-acetamide] | 143 to 145 °C | – | –

Other lines, results leading:

melting point | IK (%) (human KCNQ4 channel) | activator or inhibitor of the KCNQ channel (increase or decrease in current) (human KCNQ4 channel) | Structure (SMILES)
108 to 115 °C (dec.) | – | – | CCCCCCCCOc1ccc(O)c(O)c1 [Compound 10-1, 4-Octyloxy-benzene-1,2-diol]
94 to 97 °C | – | – | CCCCCCCCCc1ccc(C(=O)O)c(O)c1 [Compound 11-1, 4-Nonyl salicylic acid]
123 to 124 °C | – | – | CCCCCCCCOc1ccc(C(N)=O)c(O)c1 [Compound 12-4, 2-Hydroxy-4-octyloxy-benzamide]
69 to 71 °C | – | – | CCCCCCCCOc1ccc(C#N)c(O)c1 [Compound 12-5, 2-Hydroxy-4-octyloxy-benzonitrile]
142 to 146 °C | – | – | CCCCCCCCOc1ccc(-c2nnn[nH]2)c(O)c1 [Compound 12-6, 5-Octyloxy-2-(1H-tetrazol-5-yl)-phenol]
196 to 197 °C | – | – | N#Cc1ccc(NCc2ccc(-c3ccccc3)cc2)cc1O [Compound 12-16, 4-[(Biphenyl-4-ylmethyl)-amino]-2-hydroxy-benzonitrile]

Reference: US7741352B2, “KCNQ channel modulating compounds and their pharmaceutical use” (Neurosearch A/S, priority 2003, dated 2010)
